US12030895B2, “Method for preparing heterocyclic derivative compound, composition containing same compound, and hydrate of same compound” (JW PHARMACEUTICAL CORPORATION, priority 2017, dated 2024)
Like-named read-outs stand apart in the source and are kept apart here.

Assays:
[1] = for form in which the salt was obtained: salt forms prepared by the same process; for Initial purity: before storage
gout patients [2] = test: Serum uric acid level in gout patients per dose; assay type: in vivo, human; conditions: 14 days; for patients whose serum uric acid level fell below <5.0 mg/dL / percentage of patients whose serum uric acid level fell below <5.0 mg/dL: measured 15th day
Experimental: The compound was orally administered at doses of 0.25 mg (N=12), 0.5 mg (N=12), 1 mg (N=12) and 2 mg (N=12) based on the active ingredient (3,5-dibromo-4-hydroxyphenyl)(2,3-dihydro-4H-pyrido[4,3-b][1,4]oxazin-4-yl)-methanone (Formula I), and placebo (N=12), for 14 days. The efficacy and safety of the compound on the serum uric acid (UA) level was evaluated in comparison with the placebo.
Serum uric acid levels were measured on the 15th day after administration, and the percentages of patients whose serum uric acid level fell below <6.0 mg/dL and below <5.0 mg/dL were determined and shown in FIG. 13. […] From the above results, it could be understood that a dose less than 2 mg is not effective in the treatment of diseases such as hyperuricemia and gout.
In addition, for a total of 68 gout patients, (3,5-dibromo-4-hydroxyphenyl)(2,3-dihydro-4H-pyrido[4,3-b][1,4]oxazin-4-yl)-methanone hydrochloride 1.5 hydrate according to the present invention was administered. The compound was orally administered at doses of 3 mg (N=13), 5 mg (N=14), 7 mg (N=15) and 10 mg (N=15) based on the active ingredient (3,5-dibromo-4-hydroxyphenyl)(2,3-dihydro-4H-pyrido[4,3-b][1,4]oxazin-4-yl)-methanone (Formula I), and placebo (N=11), for 14 days. The efficacy and safety of the compound on the serum uric acid level was evaluated in comparison with the placebo.
Serum uric acid levels were measured on the 15th day after administration, and the percentages of patients whose serum uric acid level fell below <6.0 mg/dL and below <5.0 mg/dL were determined and shown in FIG. 14.

[3] = Physical stability to processing factors (grinding, granulating, tableting); assay type: physicochemical
Excerpt: In addition, the physical stability to processing factors in the preparation of the above 1.5 hydrate and the non-solvate were compared, and the results are shown in Table 2 below.

[4] = Solubility test in FeSSIF; assay type: physicochemical; conditions: At 240 minutes; 50 mL FeSSIF (pH 5.0), 37° C., paddle 50 rpm; 10 mg compound + 100 mg lactose
Experimental: The solubility test was carried out using 50 mL of FeSSIF (pH 5.0) as a medium and setting the paddle speed at 50 rpm under the operation condition at 37° C.

gout patients [5] = test: Adverse drug reaction per dose in gout patients; assay type: in vivo, human; conditions: oral, 14 days
Experimental: The compound was orally administered at doses 3 mg (N=14), 5 mg (N=15), 7 mg (N=17) and 10 mg (N=17) based on the active ingredient (3,5-dibromo-4-hydroxyphenyl)(2,3-dihydro-4H-pyrido[4,3-b][1,4]oxazin-4-yl)-methanone (Formula I), and placebo (N=13), for 14 days, and the adverse drug reaction was investigated.

gout patients [6] = test: Urinary creatinine levels in gout patients; assay type: in vivo, human; conditions: 10 mg, oral, 14 days
Experimental: Furthermore, urinary creatinine levels were also measured in the same patients. The number of cases in which creatinine is increased by more than 0.3 mg/dL or more than 1.5 times compared to baseline is shown in Table 4 below.

[7] = 30% v/w solvent, granulated about 2 min, dried at 50° C.

## O=P(O)(O)O.c1cc2c(cn1)NCCO2
[1]
  form in which the salt was obtained: gel form

## Cl.c1cc2c(cn1)NCCO2
[1]
  form in which the salt was obtained: unstable in a semi-solid form

## c1cc2c(cn1)NCCO2 [Free base]
[1]; 30° C., 65% RH
  purity, 1 week: 97.72%
  purity, 2 weeks: 97.96%
  purity, 4 weeks: 98.18%
[1]; 40° C., 75% RH
  purity, 1 week: 97.74%
  purity, 2 weeks: 97.91%
  purity, 4 weeks: 98.10%
[1]
  Initial purity: 99.36%
[1]; both conditions, up to 4 weeks
  Note (purity over the stability test): >97.5%

## O=S(=O)(O)O.c1cc2c(cn1)NCCO2 [Sulfate]
[1]; 30° C., 65% RH
  purity, 1 week: 99.05%
  purity, 2 weeks: 99.85%
  purity, 4 weeks: melted
[1]; 40° C., 75% RH
  purity, 1 week: melted
  purity, 2 weeks: melted
  purity, 4 weeks: melted
[1]
  Initial purity: 98.88%
  form in which the salt was obtained: solid form
[1]; both conditions, up to 4 weeks
  Note (stability verdict): unstable
[1]; stability test for 4 weeks
  stability test outcome in words: the solid melted again to a liquid

## O=C(c1cc(Br)c(O)c(Br)c1)N1CCOc2ccncc21 [compound of Formula I, (3,5-dibromo-4-hydroxyphenyl)(2,3-dihydro-4H-pyrido[4,3-b][1,4]oxazin-4-yl)-methanone]
Gout patients [2]; 0.25 mg oral
  patients whose serum uric acid level fell below <5.0 mg/dL: no patient
Gout patients [2]; 0.5 mg oral
  patients whose serum uric acid level fell below <5.0 mg/dL: no patient
Gout patients [2]; 1 mg oral
  patients whose serum uric acid level fell below <5.0 mg/dL: no patient
Gout patients [2]; 2 mg oral
  percentage of patients whose serum uric acid level fell below <5.0 mg/dL: about 8%
Gout patients [2]; 3 mg oral
  percentage of patients whose serum uric acid level fell below <5.0 mg/dL: approximately 23%
Gout patients [2]; 5 mg oral
  percentage of patients whose serum uric acid level fell below <5.0 mg/dL: ~64%
Gout patients [2]; 7 mg oral
  percentage of patients whose serum uric acid level fell below <5.0 mg/dL: ~80%
Gout patients [2]; 10 mg oral
  percentage of patients whose serum uric acid level fell below <5.0 mg/dL: ~73%

## Cl.Cl.O.O.O.O=C(c1cc(Br)c(O)c(Br)c1)N1CCOc2ccncc21.O=C(c1cc(Br)c(O)c(Br)c1)N1CCOc2ccncc21 [hydrochloride 1.5 hydrate, (3,5-dibromo-4-hydroxyphenyl)(2,3-dihydro-4H-pyrido[4,3-b][1,4]oxazin-4-yl)-methanone hydrochloride 1.5 hydrate]
[3]; 2 tons of pressure for 5 sec, 7 mm punches, powder X-ray diffractometer
  Crystallinity change after Tableting: Δ5% (94→89%)
[3]; [7]
  Solid form after Granulating with 1:1 of water and ethanol: Unchanged
  Solid form after Granulating with water: Unchanged
[3]; granulating
  solid forms in granulating: no change
[3]; ground about 2 min using a mortar, powder X-ray diffractometer
  Crystallinity change after Grinding: Δ3% (94→91%)
[4]
  solubility: about 125 μg/mL
Gout patients [2]; 0.25 mg oral
  patients whose serum uric acid level fell below <5.0 mg/dL: no patient
Gout patients [2]; 0.5 mg oral
  patients whose serum uric acid level fell below <5.0 mg/dL: no patient
Gout patients [2]; 1 mg oral
  patients whose serum uric acid level fell below <5.0 mg/dL: no patient
Gout patients [2]; 2 mg oral
  percentage of patients whose serum uric acid level fell below <5.0 mg/dL: about 8%
Gout patients [2]; 3 mg oral
  percentage of patients whose serum uric acid level fell below <5.0 mg/dL: approximately 23%
Gout patients [2]; 3 mg, 5 mg, 7 mg and 10 mg, oral
  Patients whose serum uric acid level fell below <6.0 mg/dL: appeared in all experimental doses
Gout patients [2]; 5 mg oral
  percentage of patients whose serum uric acid level fell below <5.0 mg/dL: ~64%
Gout patients [2]; 7 mg oral
  percentage of patients whose serum uric acid level fell below <5.0 mg/dL: ~80%
Gout patients [2]; 10 mg oral
  percentage of patients whose serum uric acid level fell below <5.0 mg/dL: ~73%
Gout patients [5]; 3 mg (N = 14)
  arthralgia (adverse drug reaction): 0
  joint swelling (adverse drug reaction): 0
Gout patients [5]; 3 mg, 5 mg, 7 mg and 10 mg
  incidence of adverse events such as arthralgia and joint swelling: no or very low incidence
Gout patients [5]; 5 mg (N = 15)
  arthralgia (adverse drug reaction): 0
  joint swelling (adverse drug reaction): 0
Gout patients [5]; 7 mg (N = 17)
  arthralgia (adverse drug reaction): 0
  joint swelling (adverse drug reaction): 0
Gout patients [5]; 10 mg (N = 17)
  arthralgia (adverse drug reaction), cases: [3 cases]
  arthralgia (adverse drug reaction), persons: 2 persons
  arthralgia (adverse drug reaction), share of persons: 11.76%
  joint swelling (adverse drug reaction), cases: [1 case]
  joint swelling (adverse drug reaction), persons: 1 person
  joint swelling (adverse drug reaction), share of persons: 5.88%
Gout patients [6]
  Number of cases in which creatinine is increased by more than 0.3 mg/dL or more than 1.5 times compared to baseline: 3
